ChEMBL document CHEMBL3885861, “Open TG-GATES”

Species: Rattus norvegicus
Assay: Open TG-GATES - Regimen: Single
Format: toxicity, organism-based, Sprague-Dawley
Set-up: regimen Single, gender Male, age 6 weeks
Conditions: in vivo, po, 40 mg/kg, route gavage, dose level Low; for APTT / Bas / Eos / Fbg / Hb / Ht / Lym / MCH / MCHC / MCV / Mono / Neu / PT / Plat / RBC / Ret / WBC: tissue Blood; for KIDNEY_L / KIDNEY_R / KIDNEY_TOTAL: tissue Kidney; for LIVER: tissue Liver; for A/G / ALP / ALT / AST / BUN / CRE / Ca / Cl / DBIL / GLC / IP / K / LDH / Na / PL / RALB / TBIL / TC / TG / TP / gamma-GTP: tissue Plasma

Cc1cccc(C)c1OCC(C)N (configuration not stated) [MEXILETINE] showed a TERMINAL_BW (3 h) of 218.4 g, an APTT (3 h) of 20.9 s and a Bas (3 h) of 0%. It also gave an Eos (3 h) of 0.4%, a Fbg (3 h) of 302.8 mg/dL and a Hb (3 h) of 13.1 g/dL. It also gave a Ht (3 h) of 40.8%, a Lym (3 h) of 80.4% and an MCH (3 h) of 20.6 pg. For the same molecule, the MCHC (3 h) was 32.1%, the MCV (3 h) was 64.2 fL and the Mono (3 h) was 2.2%. The Neu (3 h) was 16%, the PT (3 h) was 15.9 s and the Plat (3 h) was 119 x10_4/uL. For the same molecule, the RBC (3 h) was 634.2 x10_4/ul, the Ret (3 h) was 7.8% and the WBC (3 h) was 92.2 x10_2/uL. For the same molecule, the KIDNEY_L (3 h) was 1 g, the KIDNEY_R (3 h) was 1 g and the KIDNEY_TOTAL (3 h) was 1.9 g. It also gave an LIVER (3 h) of 10.2 g, an A/G (3 h) of 1.2 and an ALP (3 h) of 1641.6 IU/L. The ALT (3 h) was 51 IU/L, the AST (3 h) was 79.6 IU/L and the BUN (3 h) was 13.6 mg/dL. The CRE (3 h) was 0.2 mg/dL, the Ca (3 h) was 10.7 mg/dL and the Cl (3 h) was 105.6 meq/L. The DBIL (3 h) was 0 mg/dL, the GLC (3 h) was 188.8 mg/dL and the IP (3 h) was 8.8 mg/dL. For the same molecule, the K (3 h) was 4 meq/L, the LDH (3 h) was 207.4 IU/L and the Na (3 h) was 142.4 meq/L. The PL (3 h) was 149.2 mg/dL, the RALB (3 h) was 3 g/dL and the TBIL (3 h) was 0.01 mg/dL. The TC (3 h) was 84.4 mg/dL, the TG (3 h) was 67.6 mg/dL and the TP (3 h) was 5.5 g/dL. It also gave a gamma-GTP (3 h) of 1.2 IU/L, a TERMINAL_BW (6 h) of 214 g and an APTT (6 h) of 23.3 s. For the same molecule, the Bas (6 h) was 0%, the Eos (6 h) was 0.8% and the Fbg (6 h) was 314 mg/dL. The Hb (6 h) was 13.5 g/dL, the Ht (6 h) was 40.8% and the Lym (6 h) was 83.6%. It also gave an MCH (6 h) of 20.9 pg, an MCHC (6 h) of 33.2% and an MCV (6 h) of 63 fL. For the same molecule, the Mono (6 h) was 2.6%, the Neu (6 h) was 11.4% and the PT (6 h) was 16 s. The Plat (6 h) was 118.1 x10_4/uL, the RBC (6 h) was 647.4 x10_4/ul and the Ret (6 h) was 7.2%. It also gave a WBC (6 h) of 88.1 x10_2/uL, a KIDNEY_L (6 h) of 0.9 g and a KIDNEY_R (6 h) of 0.9 g. It also gave a KIDNEY_TOTAL (6 h) of 1.8 g, an LIVER (6 h) of 9.2 g and an A/G (6 h) of 1.2. It also gave an ALP (6 h) of 1364.6 IU/L, an ALT (6 h) of 43 IU/L and an AST (6 h) of 72.8 IU/L. It also gave a BUN (6 h) of 10.4 mg/dL, a CRE (6 h) of 0.2 mg/dL and a Ca (6 h) of 10.6 mg/dL. For the same molecule, the Cl (6 h) was 105.6 meq/L, the DBIL (6 h) was 0 mg/dL and the GLC (6 h) was 180.8 mg/dL. It also gave an IP (6 h) of 8.5 mg/dL, a K (6 h) of 4.2 meq/L and an LDH (6 h) of 153.4 IU/L. It also gave a Na (6 h) of 141 meq/L, a PL (6 h) of 128.8 mg/dL and an RALB (6 h) of 3 g/dL. The TBIL (6 h) was 0.022 mg/dL, the TC (6 h) was 69 mg/dL and the TG (6 h) was 68 mg/dL. It also gave a TP (6 h) of 5.5 g/dL, a gamma-GTP (6 h) of 1.4 IU/L and a TERMINAL_BW (9 h) of 217.2 g. The APTT (9 h) was 22.4 s, the Bas (9 h) was 0% and the Eos (9 h) was 0.6%. It also gave a Fbg (9 h) of 293.8 mg/dL, a Hb (9 h) of 12.7 g/dL and a Ht (9 h) of 39.7%. The Lym (9 h) was 73.6%, the MCH (9 h) was 20.3 pg and the MCHC (9 h) was 32%. It also gave an MCV (9 h) of 63.6 fL, a Mono (9 h) of 2.6% and a Neu (9 h) of 22%. For the same molecule, the PT (9 h) was 16.2 s, the Plat (9 h) was 106.8 x10_4/uL and the RBC (9 h) was 624.6 x10_4/ul. For the same molecule, the Ret (9 h) was 8.1%, the WBC (9 h) was 122.3 x10_2/uL and the KIDNEY_L (9 h) was 0.9 g. For the same molecule, the KIDNEY_R (9 h) was 0.9 g, the KIDNEY_TOTAL (9 h) was 1.9 g and the LIVER (9 h) was 9.3 g. For the same molecule, the A/G (9 h) was 1.2, the ALP (9 h) was 1650.8 IU/L and the ALT (9 h) was 40.2 IU/L. The AST (9 h) was 65.2 IU/L, the BUN (9 h) was 11.6 mg/dL and the CRE (9 h) was 0.2 mg/dL. It also gave a Ca (9 h) of 10.4 mg/dL, a Cl (9 h) of 106.2 meq/L and a DBIL (9 h) of 0.002 mg/dL. It also gave a GLC (9 h) of 192.2 mg/dL, an IP (9 h) of 9.6 mg/dL and a K (9 h) of 4.2 meq/L. The LDH (9 h) was 127.2 IU/L, the Na (9 h) was 140.6 meq/L and the PL (9 h) was 129.6 mg/dL. For the same molecule, the RALB (9 h) was 3 g/dL, the TBIL (9 h) was 0.022 mg/dL and the TC (9 h) was 71.4 mg/dL. The TG (9 h) was 77 mg/dL, the TP (9 h) was 5.5 g/dL and the gamma-GTP (9 h) was 1.2 IU/L. It also gave a TERMINAL_BW (24 h) of 232.2 g, an APTT (24 h) of 20.7 s and a Bas (24 h) of 0%. For the same molecule, the Eos (24 h) was 1.4%, the Fbg (24 h) was 297.2 mg/dL and the Hb (24 h) was 12.3 g/dL. The Ht (24 h) was 38.5%, the Lym (24 h) was 80.2% and the MCH (24 h) was 19.9 pg. The MCHC (24 h) was 31.9%, the MCV (24 h) was 62.6 fL and the Mono (24 h) was 2.6%. The Neu (24 h) was 16%, the PT (24 h) was 16.5 s and the Plat (24 h) was 114.4 x10_4/uL. The RBC (24 h) was 616.2 x10_4/ul, the Ret (24 h) was 7.5% and the WBC (24 h) was 87.8 x10_2/uL. For the same molecule, the KIDNEY_L (24 h) was 1 g, the KIDNEY_R (24 h) was 1 g and the KIDNEY_TOTAL (24 h) was 2 g. For the same molecule, the LIVER (24 h) was 10.5 g, the A/G (24 h) was 1.2 and the ALP (24 h) was 1448.8 IU/L. The ALT (24 h) was 44.6 IU/L, the AST (24 h) was 73.4 IU/L and the BUN (24 h) was 15.8 mg/dL. The CRE (24 h) was 0.2 mg/dL, the Ca (24 h) was 10.8 mg/dL and the Cl (24 h) was 105.6 meq/L. It also gave a DBIL (24 h) of 0 mg/dL, a GLC (24 h) of 184.2 mg/dL and an IP (24 h) of 7.6 mg/dL. It also gave a K (24 h) of 4.1 meq/L, an LDH (24 h) of 158.6 IU/L and a Na (24 h) of 141.8 meq/L. It also gave a PL (24 h) of 140 mg/dL, an RALB (24 h) of 3.1 g/dL and a TBIL (24 h) of 0.01 mg/dL. It also gave a TC (24 h) of 79 mg/dL, a TG (24 h) of 89.8 mg/dL and a TP (24 h) of 5.5 g/dL. For the same molecule, the gamma-GTP (24 h) was 1.6 IU/L.
